Test results taken from PubChem BioAssay (NCI).
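Protocol summary: plate cells (96-well), add compound at 5 concentrations, incubate 48 h, interpolate endpoints linearly. Abbreviation: GI50, concentration required for 50% inhibition of growth. TGI denotes the concentration required for complete inhibition of growth.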

Columns and labels:
Test in all cases: inhibition of tumour cell growth, NCI panel, 48 h
NCI-H23 lung = test system: NCI-H23 lung
RPMI-8226 leukemia = test system: RPMI-8226 leukemia
MCF7 breast = test system: MCF7 breast
U251 CNS = test system: U251 CNS
SK-MEL-2 melanoma = test system: SK-MEL-2 melanoma
OVCAR-5 ovarian = test system: OVCAR-5 ovarian
COLO 205 colon = test system: COLO 205 colon
NCI-H522 lung = test system: NCI-H522 lung
MDA-MB-231 breast = test system: MDA-MB-231 breast
SR leukemia = test system: SR leukemia

Row | Compound | GI50 (NCI-H23 lung) | TGI (NCI-H23 lung) | GI50 (RPMI-8226 leukemia) | TGI (RPMI-8226 leukemia) | GI50 (MCF7 breast) | TGI (MCF7 breast) | GI50 (U251 CNS) | TGI (U251 CNS) | GI50 (SK-MEL-2 melanoma) | TGI (SK-MEL-2 melanoma) | GI50 (OVCAR-5 ovarian) | TGI (OVCAR-5 ovarian) | GI50 (COLO 205 colon) | TGI (COLO 205 colon) | GI50 (NCI-H522 lung) | TGI (NCI-H522 lung) | GI50 (MDA-MB-231 breast) | TGI (MDA-MB-231 breast) | GI50 (SR leukemia) | TGI (SR leukemia)
1 | COc1ccc(C2C3=C(COC3=O)N(CCO)c3cc4c(cc32)OCCO4)cc1OC (configuration not stated) | 2.25 µM | > 50 µM | 1.91 µM | > 12.6 µM | 0.634 µM | > 50 µM | 2.89 µM | > 50 µM | 0.979 µM | 3.65 µM | 18.4 µM | > 50 µM | 1.34 µM | 3.62 µM | 0.27 µM | 1.38 µM | 6.78 µM | 36.5 µM | 0.741 µM | 35.8 µM
2 | O=C(Nc1ccc(S(=O)(=O)NC2CCCCCC2)cc1)C(c1ccccc1)S(=O)(=O)c1ccc(F)cc1 (configuration not stated) | 0.187 µM | 0.933 µM | – | – | 0.124 µM | 1.61 µM | 0.51 µM | 3.57 µM | 0.449 µM | 2.08 µM | 0.374 µM | 3.15 µM | – | – | 0.318 µM | 2.94 µM | 0.35 µM | 1.94 µM | 0.41 µM | 4.42 µM
3 | C=C(C)[C@@H]1CC[C@]2(C)[C@H](C=CC3=C4C[C@@](C)(CO)CC[C@]4(C)CC[C@]32C)[C@@]1(C)CCCN | 1.77 µM | 3.32 µM | – | – | 1.6 µM | 3.4 µM | 1.64 µM | 3.32 µM | 1.92 µM | 3.58 µM | 1.71 µM | 3.09 µM | 1.49 µM | 3.23 µM | – | – | 1.77 µM | 3.27 µM | – | –
4 | Cc1cc2nc3c4ccccc4n(CCN(C)C)c3nc2cc1C | 1.87 µM | 5.7 µM | – | – | 1.41 µM | 7.14 µM | 2.01 µM | 11.3 µM | 1.9 µM | 4.24 µM | 2.1 µM | 6.45 µM | 1.29 µM | 4.49 µM | 0.673 µM | 3.24 µM | 1.76 µM | 9.91 µM | – | –
5 | CC1(C)CC2CC(C)(CN2c2ncnc3ccc(Br)cc23)C1 (configuration not stated) | 8.74 µM | 20.8 µM | 2.58 µM | 13.5 µM | – | – | 13.3 µM | 26.1 µM | 28.8 µM | > 100 µM | 14.1 µM | 27.1 µM | 15.4 µM | 29.8 µM | 13 µM | 29.3 µM | 2 µM | 12.4 µM | – | –
6 | CC[O-].CC[O-].O=C([CH-]C(=O)c1ccccc1)c1ccccc1.O=C([CH-]C(=O)c1ccccc1)c1ccccc1.[Ti+4] | > 100 µM | > 100 µM | 45.4 µM | > 100 µM | – | – | 57.2 µM | > 100 µM | > 100 µM | > 100 µM | > 100 µM | > 100 µM | > 100 µM | > 100 µM | > 100 µM | > 100 µM | – | – | 62.4 µM | > 100 µM
7 | C[N+]1=c2c3cccc4cccc(c(=O)n2CCC1)c43 | – | 39.1 µM | – | 52.3 µM | – | – | – | > 100 µM | – | 35.3 µM | – | 36.5 µM | – | 32.2 µM | – | 30.2 µM | – | – | – | 46.9 µM
8 | N#CC(C#N)=Cc1ccc(-c2ccc(-c3nc4ccccc4o3)cc2)o1 | 27.2 µM | 93.8 µM | – | – | 7.99 µM | > 100 µM | 21.7 µM | 52.5 µM | > 100 µM | > 100 µM | 27.1 µM | 52 µM | 40 µM | > 100 µM | 60.4 µM | > 100 µM | 19.9 µM | 69.5 µM | – | –
9 | O=C1c2ccccc2C(=O)c2sc(Nc3ccc(Cl)c(Cl)c3)nc21 | – | 10.5 µM | – | 5 µM | – | – | – | 6.05 µM | – | 33.2 µM | – | 7.58 µM | – | 15.4 µM | – | 4.66 µM | – | 6.82 µM | – | 11.5 µM
10 | CC(=O)/C=C/C1=C(c2ccsc2)c2ccccc2CC1 | 20.3 µM | 39.6 µM | 23.2 µM | 47.6 µM | 21.4 µM | 40 µM | 22.1 µM | 48.8 µM | 21.2 µM | 38 µM | 27.1 µM | > 100 µM | 36.5 µM | > 100 µM | 15.3 µM | 31.3 µM | 19.3 µM | 49.4 µM | – | –
11 | CC(C)NC(=O)O/N=C1\CCC2[C@@H]3CC=C4C[C@@H](OC(=O)NC(C)C)CC[C@]4(C)C3CC[C@]12C (some centres not stated) | – | 3.79 µM | – | 2.96 µM | – | – | – | 2.8 µM | – | 2.9 µM | – | 4.26 µM | – | 1.29 µM | – | 3.4 µM | – | – | – | 7.69 µM
12 | OC1C2C=CCC1CCC2 (configuration not stated) | – | > 100 µM | – | > 100 µM | – | – | – | > 100 µM | – | > 100 µM | – | > 100 µM | – | > 100 µM | – | > 100 µM | – | – | – | > 100 µM
13 | O=P1(O)c2ccccc2CS(=O)(=O)Cc2ccccc21 | – | > 100 µM | – | – | – | > 100 µM | – | > 100 µM | – | > 100 µM | – | > 100 µM | – | > 100 µM | – | > 100 µM | – | > 100 µM | – | –
14 | COc1cnc2c(c1)C(=O)c1c-2n(CCCN2CCN(CCO)CC2)c(=O)c2cc([N+](=O)[O-])ccc12 | 1.27 µM | 3.33 µM | 1.57 µM | 6.75 µM | 0.142 µM | 1.59 µM | 1.16 µM | 2.42 µM | 18.7 µM | 39 µM | 19.5 µM | 37.2 µM | 1.18 µM | 5.13 µM | 0.499 µM | 2.89 µM | 1.81 µM | 3.74 µM | – | –
15 | Cc1ccc(-c2cc(/C=N/O)on2)cc1 | 73.1 µM | > 100 µM | 36.9 µM | > 100 µM | 55.1 µM | > 100 µM | 54.3 µM | > 100 µM | 97.3 µM | > 100 µM | > 100 µM | > 100 µM | 49.9 µM | > 100 µM | 62.4 µM | > 100 µM | > 100 µM | > 100 µM | – | –
16 | OC(c1ccccc1)c1c(-c2ccccc2)oc(-c2ccccc2)c1C(O)c1ccccc1 (configuration not stated) | – | 23.3 µM | – | 14 µM | – | 16.6 µM | – | 27.6 µM | – | 31.5 µM | – | 32.6 µM | – | 19.4 µM | – | 11.1 µM | – | – | – | 62.9 µM
17 | NC(=O)NC(=O)C1CCCCC1C(=O)O (configuration not stated) | – | > 100 µM | – | > 100 µM | – | > 100 µM | – | > 100 µM | – | > 100 µM | – | > 100 µM | – | > 100 µM | – | > 100 µM | – | > 100 µM | – | –
